This is an account of results in patent publication US6649637B2, “Inhibition of intracellular replication by pyridinylimidazoles” (priority 2001, dated 2003).

Assay [1] has as its system T. gondii. The settings on record: cited from earlier work.
The subject of another assay is T. gondii strain RH. Put plainly: Protection of fibroblast monolayers from T. gondii-mediated destruction.
Assay [2] concerns T. gondii infected dendritic cells. The assay is classed as cell-based, human.
The subject of assay [3] is T. gondii RH strain tachyzoites. Put plainly: [3H]methyluracil incorporation: intracellular tachyzoite replication in human fibroblasts, RH strain. Type of assay: cell-based, Toxoplasma gondii. Conditions: drug added 6 hours after infection; for inhibition of intracellular RH strain tachyzoite replication: dose-dependent.
A further assay concerns mutant tachyzoite SBRRH2. Kind of assay: Replication of SB203580-resistant RH clone SBRRH2 in fibroblasts. Type of assay: cell-based, Toxoplasma gondii.
Assay [4] concerns T. gondii Me49 strain tachyzoites. Put plainly: [3H]methyluracil incorporation: intracellular tachyzoite replication in human fibroblasts, Me49 strain. Type of assay: cell-based, Toxoplasma gondii. Conditions: for Me49 strain more susceptible to growth inhibition than RH strain: ratio of IC50 RH / Me49.
Assay [5] deals with RH strain T. gondii. Kind of assay: Diamidino-2-phenylindole staining / microscopy of infected fibroblasts: tachyzoite and vacuole morphology. The settings on record: for tachyzoite morphology (bi-/multinucleated forms): diamidino-2-phenylindole staining.
Method: Parasitophorous vacuoles and tachyzoite morphology were assessed by diamidino-2-phenylindole staining 24 hours later using an ultraviolet light with excitation at 410-430 nM.
Tachyzoites were released from infected fibroblasts by forced passage through a 27-gauge needle, and used within 2 hours of collection to infect new host cells. Tachyzoites were enumerated with a hemacytometer using Trypan blue dye. To evaluate nuclear morphology, infected cells were stained with diamidino-2phenylindole (Sigma) and examined by light microscopy at 400× magnification. To estimate the intensity of T. gondii infection, cytospin preparations of aliquots of cells in infected cultures were stained with Giemsa stain and examined by light microscopy using a 40× objective. At least 200 cells per condition were counted.
For assay [6], the system named is extracellular T. gondii tachyzoites. Kind of assay: Incubation of extracellular tachyzoites with drug, wash, then [3H]uracil incorporation in fresh fibroblasts. Type of assay: cell-based, Toxoplasma gondii. Conditions: 10 μM, extracellular tachyzoites incubated 1 hour, washed; at 48 hours.
Another assay addresses human p38 MAPK (Homo sapiens, UniProt Q16539). The settings on record: cited from earlier work.
Another assay relates to RH T. gondii. Kind of assay: Combination with pyrimethamine: [3H]uracil incorporation in RH infected fibroblasts. Type of assay: cell-based, Toxoplasma gondii. The settings on record: SB203580 1 μM. The procedure: Fibroblasts were infected overnight and then treated with both drugs simultaneously or individually. Incorporated [^3H]methyuracil was measured 48 hours later. Data from one representative experiment is shown.
Pyrimethamine (Sigma) was dissolved in dimethylsulfoxide and added 1 hour after infection alone or in combination with other agents.

Assay [7] has as its system RH strain T. gondii. Put plainly: Stage conversion (tachyzoite to bradyzoite) by flow cytometry, RH strain. The assay is classed as cell-based, Toxoplasma gondii. The procedure:
Bradyzoites highly express p36 (BSR4), and p21 in cell culture, and downregulate the tachyzoite-specific proteins SAG1 and SAG2 (38, 39). […] The drugs were replaced every 5 days. After 15 days, adherent, infected fibroblasts were recovered and freed intracellular organisms were analyzed by flow cytometry (FIG. 6A).
(§1) Tachyzoites were stained with murine monoclonal antibodies specific for tachyzoite protein (SAG-2, provided by Jacqueline Channon, Dartmouth) or bradyzoite-specific antibodies against p21 or p36 (32) followed by fixation with paraformaldehyde. Flow cytometric data were acquired on a FACS Calibur (Becton-Dickinson, Mountain View, Calif.) and analyzed using CellQuest software (Becton-Dickinson) with 5000 or more events evaluated for each condition. Analysis gates were set using appropriate antibody isotype controls, and dead cells were excluded based on light scatter characteristics.

Assay [8] has as its system T. gondii. Put plainly: T. gondii replication in dendritic cells. Type of assay: cell-based, Toxoplasma gondii.
Assay [9] concerns T. gondii acyl-CoA:cholesterol acyltransferase. Kind of assay: Cholesterol esterification ([14C]oleate pulse labelling) in extracellular tachyzoites. Type of assay: biochemical, Toxoplasma gondii. Conditions: 10 μM, extracellular RH tachyzoites, 7 hours. The procedure: (§2) The mean of triplicate replications with standard error bars is shown. “Control” is no drug treatment.
One experiment representative of 4 is shown for each measure.
Cholesterol esterification activity was assessed by pulse-labeling of cells using radiolabeled fatty acid as substrate. […] At the time of drug addition, acyl-CoA:cholesterol acyltransferase activity was stimulated with 25-hydroxycholesterol plus cholesterol and cells were pulse-labeled for 2 hours with 20 μl sodium [^14C]oleate-albumin complex. Lipids were extracted with hexane/isopropanol (3:2 ratio) and the organic solvents evaporated under a nitrogen stream. Lipids were resuspended in chloroform, spotted on TLC silica gel G plates (Fisher, Fairlawn, N.J.) and separated in hexane/ethyl ether/glacial acetic acid (80:20:1 ratio). Cholesterol ester content was determined by liquid scintillation and normalized as pmol ^14C/mg protein. […] After 3 days, cells were fixed in paraformaldehyde, rinsed in PBS, stained with filipin (Sigma) and examined by fluorescence microscopy using an excitation filter of 350-410 nm. Cholesterol content was determined in densitometric units measured with an Alpha Imager 2000 (Alpha Innotech Corporation, San Leandro, Calif.).

The subject of the next assay is RH strain tachyzoites. Put plainly: Tachyzoite cholesterol content (densitometric units). The assay is classed as cell-based, Toxoplasma gondii. Conditions: 10 μM. The protocol: as §2
Cholesterol esterification activity was assessed by pulse-labeling of cells using radiolabeled fatty acid as substrate. […] At the time of drug addition, acyl-CoA:cholesterol acyltransferase activity was stimulated with 25-hydroxycholesterol plus cholesterol and cells were pulse-labeled for 2 hours with 20 μl sodium [^14C]oleate-albumin complex. Lipids were extracted with hexane/isopropanol (3:2 ratio) and the organic solvents evaporated under a nitrogen stream. Lipids were resuspended in chloroform, spotted on TLC silica gel G plates (Fisher, Fairlawn, N.J.) and separated in hexane/ethyl ether/glacial acetic acid (80:20:1 ratio). Cholesterol ester content was determined by liquid scintillation and normalized as pmol ^14C/mg protein. For cytochemical staining of 3-hydroxysterols, fibroblasts were seeded on poly-lysine coated coverslips, infected with RH T. gondii tachyzoites and incubated with drugs as described. After 3 days, cells were fixed in paraformaldehyde, rinsed in PBS, stained with filipin (Sigma) and examined by fluorescence microscopy using an excitation filter of 350-410 nm. Cholesterol content was determined in densitometric units measured with an Alpha Imager 2000 (Alpha Innotech Corporation, San Leandro, Calif.).

The subject of another assay is Me49 tachyzoites. Kind of assay: Stage conversion (tachyzoite to bradyzoite) by flow cytometry, Me49 strain. The assay is classed as cell-based, Toxoplasma gondii. Conditions: Me49, after 5 days of treatment.
Source text: as §1

Setting [10] is: infected MOI 3 for 2 days, then 10 μM, 5 days after treatment was begun.
Where [11] appears, read: single dose 10 μM 1 hour after infection, MOI 3, three days after infection.
Where [12] appears, read: fibroblasts, [3H]methyluracil incorporation.

Like-named read-outs stand apart in the source and are kept apart here.

Sequence of human p38 MAPK (Q16539 whole entry): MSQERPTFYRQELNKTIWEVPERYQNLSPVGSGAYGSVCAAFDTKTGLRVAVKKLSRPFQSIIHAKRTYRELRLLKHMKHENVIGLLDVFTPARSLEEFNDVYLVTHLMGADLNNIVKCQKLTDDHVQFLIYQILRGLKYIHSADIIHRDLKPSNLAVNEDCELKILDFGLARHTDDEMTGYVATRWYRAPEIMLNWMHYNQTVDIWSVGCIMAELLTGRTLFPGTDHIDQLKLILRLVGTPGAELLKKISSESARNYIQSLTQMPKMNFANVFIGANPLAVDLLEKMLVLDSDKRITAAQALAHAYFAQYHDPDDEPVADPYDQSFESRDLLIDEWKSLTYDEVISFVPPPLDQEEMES
Source text for T. gondii strain RH: Photomicrographs were taken 5 days after treatment was begun.

With `COc1cccc(-c2cc(=O)c3ccccc3o2)c1N` [PD098059], the “effect on intracellular T. gondii replication (Roisin et al.)” value in the assay with T. gondii [1] is given as “slightly reduced”.
Turning to `Oc1ccc(-c2nc(-c3ccc(F)cc3)c(-c3ccncc3)[nH]2)cc1` [SB202190, 4-(4-fluorophenyl)-2(4-hydroxphenyl)-5-(4 pyridyl)1H-imidazole], the “state of monolayer (FIG. 6 legend)” value with T. gondii strain RH (setting [10]) is “virtually intact”. The “state of infected fibroblast culture” value in the assay on T. gondii strain RH (setting [11]) is “healthy and confluent”. For the same molecule, in assay [2], the “reversal of T. gondii mediated immunosuppression” value (“reversal” below) is “significantly reversed immunosuppression”. Besides, the IC50 in assay [3] ([3H]methyluracil incorporation, fibroblasts, estimated by linear interpolation, read-out: IC50 for inhibition of RH strain replication) is around 5000 nM; in [4] ([3H]methyluracil incorporation, fibroblasts, drug added 6 hours after infection, estimated by linear interpolation, read-out: IC50 for inhibition of Me49 strain replication), around 200 nM. Also, the “inhibition of intracellular RH strain tachyzoite replication” value in [3] is given as “significant inhibition”. The “cross-resistance of SB203580-resistant tachyzoites” value with mutant tachyzoite SBRRH2 is “Cross-resistance to SB202190 was observed”. For the same molecule, the “Me49 strain more susceptible to growth inhibition than RH strain” value in [4] is around 25 fold.
In the case of `CCc1nc(-c2ccc(OC)cc2)[nH]c1-c1ccncc1` [SB202474], the “tachyzoite morphology (bi-/multinucleated forms)” value (shortened to “tachyzoite morphology”) with RH strain T. gondii [5] is “did not induce binucleated forms”. The “state of monolayer (FIG. 6 legend)” value in the assay with T. gondii strain RH (setting [10]) is listed as “completely destroyed”. In addition, the “state of infected fibroblast culture” value with T. gondii strain RH (setting [11]) was “essentially destroyed”. The “reversal” value in assay [2] is on record as “did not reverse immunosuppression”. In addition, in [6], the “reduction of [3H]uracil incorporation” value is listed as below 15%. In addition, the entries for the “p38 MAPK inhibitory activity” value on human p38 MAPK and at human p38 MAPK (listed as SB202494) were “without significant p38 MAPK inhibitory effects” and “no anti-p38 MAPK activity”, respectively. Also, the “effect on Me49 tachyzoite replication” value in assay [4] (setting [12]) was “no significant effect”.
With `C[S+]([O-])c1ccc(-c2nc(-c3ccc(F)cc3)c(-c3ccncc3)[nH]2)cc1` (centres unmarked) [SB203580, 4(4-fluorophenyl)-2-(4-methylsulfinylphenyl)-5(4-pyridyl)1H-imidazole], the “inhibition of RH T. gondii replication, single agent” value in the assay on RH T. gondii was “effective dose”. In addition, in the assay on RH strain T. gondii [7] (10 μM SB203580 or 1 μg pyrimethamine, 15 days), the “p36+ organisms (bradyzoite marker)” value is reported as “significantly higher number”. The “p21+ cells (bradyzoite marker)” value in the assay with RH strain T. gondii [7] (SB203580) is recorded as “not evident”. In the assay with RH strain T. gondii [7] (after 15 days of culture with SB203580, 100% at culture outset), the “SAG2+ organisms (tachyzoite marker)” value is reported as below 15%. In addition, the “cyst-like structures in infected fibroblasts” value in the assay with RH strain T. gondii [5] (after 3 to 5 days) is “developed cyst-like structures”. Also, the “tachyzoite morphology” value with RH strain T. gondii [5] is “induced formation of tachyzoites with two or more nuclei”. Also, the “infected fibroblast monolayers under constant drug” value with T. gondii strain RH (constant 10 μM, four weeks) is reported as “not destroyed”. In addition, in the assay with T. gondii strain RH (setting [10]), the “monolayer destroyed (FIG. 6 legend)” value is recorded as “approximately 50%”. In addition, the “infected fibroblast culture destroyed” value in the assay with T. gondii strain RH (setting [11]) is “approximately 50%”. Besides, the “T. gondii replication in dendritic cells” value with T. gondii [8] was “does reduce”. Moreover, the “reversal” value in assay [2] is given as “significantly reversed immunosuppression”. Moreover, the “acyl-CoA:cholesterol acyltransferase activity” value in [9] is listed as “did not interfere”. Besides, the tachyzoite cholesterol content entry in the assay with RH strain tachyzoites is “only minimally reduced”. The “inhibition of intracellular RH strain tachyzoite replication” value in [3] is on record as “significantly inhibited”. Further, in the assay on Me49 tachyzoites, the SAG2 expression result is “decreased” and the p21 expression result is “significantly increased”. Besides, the “inhibition of replication of SBRRH2 in fibroblasts” value in the assay on mutant tachyzoite SBRRH2 (10 μM) is “no detectable capacity to inhibit”. Further, the “Me49 strain more susceptible to growth inhibition than RH strain” value in assay [4] was “approximately 12 fold”.
Regarding `N#CC(=C(/N)Sc1ccccc1N)/C(C#N)=C(\N)Sc1ccccc1N` [U0126], in the assay on RH strain T. gondii [5], the “tachyzoite morphology” value is “did not induce binucleated forms”. The “reversal” value in assay [2] is on record as “did not reverse immunosuppression”. Besides, the “inhibition of intracellular RH strain tachyzoite replication” value in assay [3] was “no significant effect”. Besides, the “effect on Me49 tachyzoite replication” value in [4] (setting [12]) was “no significant effect”.
As to `O=c1c(-c2ccc(O)cc2)coc2cc(O)cc(O)c12` [genistein], the “effect on intracellular T. gondii replication (Roisin et al.)” value with T. gondii [1] is listed as “no significant effect”.
As for `[O]=[V]([O-])([O-])[O-]` [vanadate], in the assay on T. gondii strain RH (setting [11]), the “state of infected fibroblast culture” value is reported as “essentially destroyed”.
